Measurements reported in US20260365653A1, “IRREVERSIBLE MUTEGFR INHIBITORS” (Bayer Aktiengesellschaft, priority 2022, published 2026).

Experiments:
[1] = biological target: T1, mutEGFR (D770_N771insNPG, T790) (Homo sapiens, UniProt P00533, INS770NPG/T790M); assay: mutEGFR (D770_N771insNPG, T790) kinase assay; assay type: biochemical; conditions: Table 2a, D770_N771insNPG
T1 construct: exact insNPG construct not described; in-house EGFR proteins were N-terminal GST fusions from baculovirus/insect cells (borders R669-A1210 given only for WT, insSVD, insASV)
Description: The different EGFR proteins used in the biochemical kinase activity inhibition assays were generated inhouse by expression in insect cells using Baculo Virus system and subsequent purification as described in the following paragraphs.
The cDNAs encoding the various protein sequences from human EGFR human (P00533) were optimized for expression in eukaryotic cells and synthesized by the GeneArt Technology at Life Technologies.

BA/F3 (insSVD) cells = assay: Ba/F3-EGFR-insSVD cell survival assay (Cell Titer-Glo); assay type: cell-based; conditions: Table 3a, cell survival, Cell Titer-Glo, with 10 ng/ml EGF, without IL-3
Description: Cellular Data Description (WT, insSVD, insSVD T790M) 293T cells from ATCC were transfected with pBABEpuro expression constructs for WT EGFR or EGFR-insSVD, or EGFR-insSVD T790M, and pCL-Eco packaging vector using Fugene-6 transfection reagent from Promega. Plates were incubated at 37° C. for 48 h. Retrovirus was harvested by filtering the media supernatant through a 0.45 μm filter.
Ba/F3 cells purchased from DSMZ were grown in RPMI+10% FBS+10 ng/ml IL-3 and infected with filtered retroviral supernatant at a 1:2 dilution. Polybrene was added to a concentration of 8 μg/mL, plates were spun for 90 min, and incubated for 16 h at 37° C. 2 μg/mL puromycin was added to the infected cells 24 h after infection and cells were continually grown in the presence of puromycin and 10 ng/ml IL-3. Following stably expressing Ba/F3 cell lines were generated: Ba/F3-EGFR-WT, Ba/F3-EGFR-insSVD, Ba/F3-EGFR-insSVD T790M, (Ba/F3-vector-control).
For cell survival assays, Ba/F3 cells were grown to a density of 1-2 million cells per mL, spun down and resuspended in media without IL-3, and replated at a concentration of 200,000-500,000 cells per mL. The cells ectopically expressing WT EGFR, EGFR-insSVD, or EGFR-insSVD T790M were plated with 10 ng/ml Millipore Culture grade EGF. The cells ectopically expressing pBABEpuro empty vector were plated with 10 ng/mL IL-3.
2 days later, cells were plated in 50 µL in a 384 well plate at a concentration of 4000 cells per well for cells assayed in the absence of IL-3 and 2000 cells per well for cells assayed in the presence of IL-3. 100 nL of compound was added to each well using a 100 nL pin head, and plates were incubated at 37° C. for 48 h.
Cell viability was measured by adding 20 μL of Cell Titer-Glo Luminescent Cell Viability Reagent diluted 1:3 in PBS. Plates were sealed with Perkin Elmer Top-Seal, inverted several times to mix, and immediately centrifuged at 1000 rpm for 2 min. Plates were incubated in low light conditions for 8-10 min and luminescence was measured.

[2] = biological target: T2, mutEGFR (D770_N771insSVD) (Homo sapiens, UniProt P00533, DUP768-770); assay: Exon20-Mutant-EGFR (D770_N771insSVD) kinase assay (TR-FRET); assay type: biochemical; conditions: mutEGFR (D770_N771insSVD) kinase assay IC50, Table 2a; D770_N771insSVD; 2 mM ATP
T2 construct: GST-EGFR #3 (SVD between D770 and N771); made in house; host or cells: Sf9 insect cells (baculovirus)
T2 sequence (P00533 with tags, fused parts or gaps DUP768-770): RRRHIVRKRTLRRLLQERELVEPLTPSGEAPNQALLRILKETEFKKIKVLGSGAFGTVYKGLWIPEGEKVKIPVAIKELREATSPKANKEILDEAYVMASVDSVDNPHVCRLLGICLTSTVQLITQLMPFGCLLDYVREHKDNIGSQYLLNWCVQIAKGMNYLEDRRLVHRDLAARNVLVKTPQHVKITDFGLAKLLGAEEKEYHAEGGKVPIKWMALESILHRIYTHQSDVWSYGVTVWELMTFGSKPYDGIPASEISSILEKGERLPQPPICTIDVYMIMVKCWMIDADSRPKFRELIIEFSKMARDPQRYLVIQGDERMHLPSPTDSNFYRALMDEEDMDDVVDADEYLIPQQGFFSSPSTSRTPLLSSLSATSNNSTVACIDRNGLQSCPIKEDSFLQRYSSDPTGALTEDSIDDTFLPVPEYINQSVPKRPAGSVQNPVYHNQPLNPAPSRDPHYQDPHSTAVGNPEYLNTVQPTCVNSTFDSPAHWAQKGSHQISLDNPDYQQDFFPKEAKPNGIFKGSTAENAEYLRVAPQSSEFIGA

T1 sequence (P00533 with tags, fused parts or gaps INS770NPG/T790M limits assumed): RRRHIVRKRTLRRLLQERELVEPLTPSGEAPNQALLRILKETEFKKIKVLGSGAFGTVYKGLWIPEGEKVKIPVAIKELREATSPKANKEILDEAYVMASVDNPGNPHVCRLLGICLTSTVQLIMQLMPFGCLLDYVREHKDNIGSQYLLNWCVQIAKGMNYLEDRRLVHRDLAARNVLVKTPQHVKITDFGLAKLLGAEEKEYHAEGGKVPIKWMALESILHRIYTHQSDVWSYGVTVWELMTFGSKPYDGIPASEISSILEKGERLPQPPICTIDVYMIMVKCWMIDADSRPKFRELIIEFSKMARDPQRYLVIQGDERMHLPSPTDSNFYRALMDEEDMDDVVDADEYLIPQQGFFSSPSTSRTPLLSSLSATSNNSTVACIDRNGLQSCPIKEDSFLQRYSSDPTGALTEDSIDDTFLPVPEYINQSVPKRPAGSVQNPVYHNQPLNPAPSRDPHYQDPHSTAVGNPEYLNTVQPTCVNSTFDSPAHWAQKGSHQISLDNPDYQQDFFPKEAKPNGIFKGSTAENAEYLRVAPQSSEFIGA

Question: Which IC50 [1] does the source give for C=CC(=O)N1Cc2c(-c3ccncc3)c(-c3ccc(F)cc3)nn2C(C(=O)NC)C1 (single isomer, unassigned; isomer 1) [Example 205, 5-acryloyl-2-(4-fluorophenyl)-N-methyl-3-(pyridin-4-yl)-4,5,6,7-tetrahydropyrazolo[1,5-a]pyrazine-7-carboxamide (isomer 1)] here?
Answer: The IC50 was 144 nM.

Question: And the IC50 (BA/F3 (insSVD) cells; Mus musculus, BaF3, 48 h)?
Answer: Its IC50 is 824 nM.

Question: What about the IC50 [2] of the same molecule?
Answer: The IC50 was 137 nM.

Question: What does the source list for C=CC(=O)N1Cc2c(-c3ccncc3)c(-c3ccc(F)cc3)nn2C(C(=O)N(C)C)C1 (single isomer, unassigned; isomer 1) [Example 206, 5-acryloyl-2-(4-fluorophenyl)-N,N-dimethyl-3-(pyridin-4-yl)-4,5,6,7-tetrahydropyrazolo[1,5-a]pyrazine-7-carboxamide (isomer 1)]?
Answer: IC50 [1]: 82.9 nM; IC50 (BA/F3 (insSVD) cells; Mus musculus, BaF3, 48 h): 600 nM; IC50 [2]: 55.3 nM

Question: Which results are given for C=CC(=O)N1CCn2nc(-c3ccc(F)cc3)c(-c3ccnc4[nH]ccc34)c2C1C (single isomer, unassigned; isomer 1) [Example 249, 1-(2-(4-fluorophenyl)-4-methyl-3-(1H-pyrrolo[2,3-b]pyridin-4-yl)-6,7-dihydropyrazolo[1,5-a]pyrazin-5(4H)-yl) prop-2-en-1-one (isomer 1)]?
Answer: IC50 [1]: 57.5 nM; IC50 (BA/F3 (insSVD) cells; Mus musculus, BaF3, 48 h): 98.7 nM; IC50 [2]: 372 nM

Question: What does the source list for CC1c2c(-c3ccnc4[nH]ccc34)c(-c3ccc(F)cc3)nn2CCN1C(=O)/C=C/CN(C)C (single isomer, unassigned; isomer 1) [Example 255, 4-(dimethylamino)-1-[2-(4-fluorophenyl)-4-methyl-3-(1H-pyrrolo[2,3-b]pyridin-4-yl)-6,7-dihydropyrazolo[1,5-a]pyrazin-5(4H)-yl]but-2-en-1-one (isomer 1)]?
Answer: IC50 [1]: 9610 nM; IC50 (BA/F3 (insSVD) cells; Mus musculus, BaF3, 48 h): 296 nM; IC50 [2]: 3180 nM

Question: What does the source list for C=CC(=O)N1CCn2nc(-c3ccc(C(F)(F)F)cc3)c(-c3ccnc4[nH]ccc34)c2C1C (single isomer, unassigned; isomer 1) [Example 258, 1-(4-methyl-3-(1H-pyrrolo[2,3-b]pyridin-4-yl)-2-(4-(trifluoromethyl)phenyl)-6,7-dihydropyrazolo[1,5-a]pyrazin-5(4H)-yl) prop-2-en-1-one (isomer 1)]?
Answer: IC50 [1]: 1070 nM; IC50 (BA/F3 (insSVD) cells; 48 h): 82.6 nM; IC50 [2]: 100 nM

Question: How did the IC50 [1] turn out when C=CC(=O)N1CCn2nc(-c3ccc(C(F)(F)F)cc3)c(-c3ccnc4[nH]cc(C)c34)c2C1C (single isomer, unassigned; isomer 1) [Example 259, 1-(4-methyl-3-(3-methyl-1H-pyrrolo[2,3-b]pyridin-4-yl)-2-(4-(trifluoromethyl)phenyl)-6,7-dihydropyrazolo[1,5-a]pyrazin-5(4H)-yl) prop-2-en-1-one (isomer 1)] was run?
Answer: The IC50 was 13300 nM.

Question: What about the IC50 (BA/F3 (insSVD) cells; Mus musculus, BaF3, 48 h) of the same molecule?
Answer: The IC50 was 296 nM.

Question: And the IC50 [2]?
Answer: The IC50 was 683 nM.

Question: What does the source list for C=CC(=O)N1CCn2nc(-c3ccc(F)cc3)c(-c3ccnc4[nH]cc(C)c34)c2C1C (single isomer, unassigned; isomer 1) [Example 262, 1-(2-(4-fluorophenyl)-4-methyl-3-(3-methyl-1H-pyrrolo[2,3-b]pyridin-4-yl)-6,7-dihydropyrazolo[1,5-a]pyrazin-5(4H)-yl) prop-2-en-1-one (isomer 1)]?
Answer: IC50 [1]: 396 nM; IC50 (BA/F3 (insSVD) cells; 48 h): 452 nM; IC50 [2]: 1620 nM

Question: With CC1c2c(-c3ccnc4[nH]ccc34)c(-c3ccc(C(F)(F)F)cc3)nn2CCN1C(=O)/C=C/CN(C)C (single isomer, unassigned; isomer 1) [Example 264, (E)-4-(dimethylamino)-1-(4-methyl-3-(1H-pyrrolo[2,3-b]pyridin-4-yl)-2-(4-(trifluoromethyl)phenyl)-6,7-dihydropyrazolo[1,5-a]pyrazin-5(4H)-yl) but-2-en-1-one (isomer 1)] as the molecule, how does the IC50 [1] read?
Answer: Its IC50 is 1130 nM.

Question: What about the IC50 (BA/F3 (insSVD) cells; 48 h) of the same molecule?
Answer: Its IC50 is 128 nM.

Question: What about the IC50 [2] of the same molecule?
Answer: The IC50 was 765 nM.

Question: For Cc1c[nH]c2nccc(-c3c(-c4ccc(C(F)(F)F)cc4)nn4c3C(C)N(C(=O)/C=C/CN(C)C)CC4)c12 (single isomer, unassigned; isomer 1) [Example 265, (E)-4-(dimethylamino)-1-(4-methyl-3-(3-methyl-1H-pyrrolo[2,3-b]pyridin-4-yl)-2-(4-(trifluoromethyl)phenyl)-6,7-dihydropyrazolo[1,5-a]pyrazin-5(4H)-yl) but-2-en-1-one (isomer 1)], which IC50 [1] is on record?
Answer: The IC50 was 6300 nM.

Question: And the IC50 (BA/F3 (insSVD) cells; 48 h)?
Answer: The IC50 was 172 nM.

Question: And the IC50 [2]?
Answer: The IC50 was 4040 nM.

Question: With Cc1c[nH]c2nccc(-c3c(-c4ccc(F)cc4)nn4c3C(C)N(C(=O)/C=C/CN(C)C)CC4)c12 (single isomer, unassigned; isomer 1) [Example 268, (E)-4-(dimethylamino)-1-(2-(4-fluorophenyl)-4-methyl-3-(3-methyl-1H-pyrrolo[2,3-b]pyridin-4-yl)-6,7-dihydropyrazolo[1,5-a]pyrazin-5(4H)-yl) but-2-en-1-one (isomer 1)] as the molecule, how does the IC50 [1] read?
Answer: Its IC50 is 446 nM.

Question: What about the IC50 (BA/F3 (insSVD) cells; 48 h) of the same molecule?
Answer: Its IC50 is 279 nM.

Question: What about the IC50 [2] of the same molecule?
Answer: The IC50 was 940 nM.

Question: What does the source list for C=CC(=O)N1Cc2c(-c3ccncc3)c(-c3ccc(OC)cc3)nn2C(C)C1 (single isomer, unassigned; isomer 1) [Example 274, 1-[2-(4-methoxyphenyl)-7-methyl-3-(pyridin-4-yl)-6,7-dihydropyrazolo[1,5-a]pyrazin-5(4H)-yl]prop-2-en-1-one (isomer 1)]?
Answer: IC50 [1]: 3.11 nM; IC50 (BA/F3 (insSVD) cells; 48 h): 34.1 nM; IC50 [2]: 1.35 nM

Question: C=CC(=O)N1CCn2nc(-c3ccc(Cl)cc3F)c(-c3ccncc3)c2C1C (single isomer, unassigned; isomer 1) [Example 278, 1-[2-(4-chloro-2-fluorophenyl)-4-methyl-3-(pyridin-4-yl)-6,7-dihydropyrazolo[1,5-a]pyrazin-5(4H)-yl]prop-2-en-1-one (isomer 1)] was tested. Which IC50 [1] did it give?
Answer: The IC50 was 0.551 nM.

Question: And the IC50 (BA/F3 (insSVD) cells; 48 h)?
Answer: The IC50 was 9.07 nM.

Question: And the IC50 [2]?
Answer: Its IC50 is 0.204 nM.

Question: Which IC50 [1] does the source give for C=CC(=O)N1Cc2c(-c3ccncc3)c(-c3ccc(Cl)cc3F)nn2C(C)C1 (single isomer, unassigned; isomer 1) [Example 282, 1-[2-(4-chloro-2-fluorophenyl)-7-methyl-3-(pyridin-4-yl)-6,7-dihydropyrazolo[1,5-a]pyrazin-5(4H)-yl]prop-2-en-1-one (isomer 1)] here?
Answer: The IC50 was 0.282 nM.

Question: And the IC50 (BA/F3 (insSVD) cells; Mus musculus, BaF3, 48 h)?
Answer: Its IC50 is 6.15 nM.

Question: What about the IC50 [2] of the same molecule?
Answer: Its IC50 is 0.117 nM.

Question: How did the IC50 [1] turn out when CC1c2c(-c3ccncc3)c(-c3ccc(Cl)cc3F)nn2CCN1C(=O)/C=C/CN(C)C (single isomer, unassigned; isomer 1) [Example 285, (2E)-1-[2-(4-chloro-2-fluorophenyl)-4-methyl-3-(pyridin-4-yl)-6,7-dihydropyrazolo[1,5-a]pyrazin-5(4H)-yl]-4-(dimethylamino)but-2-en-1-one (isomer 1)] was run?
Answer: The IC50 was 0.644 nM.

Question: What about the IC50 (BA/F3 (insSVD) cells; 48 h) of the same molecule?
Answer: The IC50 was 42 nM.

Question: And the IC50 [2]?
Answer: The IC50 was 0.232 nM.

Question: For CC1CN(C(=O)/C=C/CN(C)C)Cc2c(-c3ccncc3)c(-c3ccc(Cl)cc3F)nn21 (single isomer, unassigned; isomer 1) [Example 287, (2E)-1-[2-(4-chloro-2-fluorophenyl)-7-methyl-3-(pyridin-4-yl)-6,7-dihydropyrazolo[1,5-a]pyrazin-5(4H)-yl]-4-(dimethylamino)but-2-en-1-one (isomer 1)], which IC50 [1] is on record?
Answer: Its IC50 is 0.415 nM.

Question: What about the IC50 (BA/F3 (insSVD) cells; Mus musculus, BaF3, 48 h) of the same molecule?
Answer: Its IC50 is 37.3 nM.

Question: What about the IC50 [2] of the same molecule?
Answer: Its IC50 is 0.22 nM.

Question: Which IC50 [1] does the source give for C=CC(=O)N1C(C)c2c(-c3ccncc3)c(-c3ccc(Cl)cc3F)nn2C[C@@H]1C (single isomer, unassigned; isomer 1) [Example 292] here?
Answer: Its IC50 is 0.34 nM.

Question: And the IC50 (BA/F3 (insSVD) cells; 48 h)?
Answer: Its IC50 is 4.08 nM.

Question: And the IC50 [2]?
Answer: The IC50 was 0.129 nM.

Question: What does the source list for C=CC(=O)N1CCn2nc(-c3ccc(C(F)(F)F)cc3)c(-c3ccnc4[nH]ccc34)c2C1C (single isomer, unassigned; isomer 2) [Example 247, 1-(4-methyl-3-(1H-pyrrolo[2,3-b]pyridin-4-yl)-2-(4-(trifluoromethyl)phenyl)-6,7-dihydropyrazolo[1,5-a]pyrazin-5(4H)-yl) prop-2-en-1-one (isomer 2)]?
Answer: IC50 [1]: 933 nM; IC50 (BA/F3 (insSVD) cells; Mus musculus, BaF3, 48 h): 134 nM; IC50 [2]: 6.99 nM
